Results reported in the supplement of paper PMC10307832.

Key:
Assay in all cases: relative viability (nuclei count vs DMSO), 5 days (fraction); higher = more cells survive
HOP-62 = test system: HOP-62
Method in brief: (§1)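 Each reported value is a median over duplicate plates. It expresses relative viability: treated-well nuclei count divided by vehicle-well nuclei count. Lung cancer cell lines in 1536-well plates were dosed by pin tool a day after seeding, alone with one drug or with a fixed anchor-drug dose plus five library-drug doses (not always all listed) in √10 steps, and nuclei were counted after 5 days.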

HCC-827 = test system: HCC-827
Method in brief: as §1

NCI-H1437 = test system: NCI-H1437
Method in brief: as §1

LCLC-103H = test system: LCLC-103H
Method in brief: as §1

A-427 = test system: A-427
Method in brief: as §1

NCI-H1792 = test system: NCI-H1792
Method in brief: as §1

NCI-H1395 = test system: NCI-H1395
Method in brief: as §1

NCI-H1355 = test system: NCI-H1355
Method in brief: as §1

NCI-H460 = test system: NCI-H460
Method in brief: as §1

HARA = test system: HARA
Method in brief: as §1

NCI-H727 = test system: NCI-H727
Method in brief: as §1

NCI-H1755 = test system: NCI-H1755
Method in brief: as §1

EMC-BAC-2 = test system: EMC-BAC-2
Method in brief: as §1

NCI-H522 = test system: NCI-H522
Method in brief: as §1

NCI-H23 = test system: NCI-H23
Method in brief: as §1

NCI-H1915 = test system: NCI-H1915
Method in brief: as §1

HCC-366 = test system: HCC-366
Method in brief: as §1

NCI-H1975 = test system: NCI-H1975
Method in brief: as §1

CAL-12T = test system: CAL-12T
Method in brief: as §1

Compound: Clc1ccc(Nc2nnc(Cc3ccncc3)c3ccccc23)cc1 [Vatalanib] + NC(=O)Nc1cc(-c2cccc(F)c2)sc1C(=O)N[C@H]1CCCNC1 [AZD7762] (partner 0.2 µM)
- relative viability (HOP-62; first compound 0.04 µM): 0.792
- relative viability (HOP-62; first compound 0.1265 µM): 0.618
- relative viability (HOP-62; first compound 0.4 µM): 0.603
- relative viability (HOP-62; first compound 1.265 µM): 0.695
- relative viability (HOP-62; first compound 4 µM): 0.681
- relative viability (HCC-827; first compound 0.04 µM): 0.187
- relative viability (HCC-827; first compound 0.1265 µM): 0.282
- relative viability (HCC-827; first compound 1.265 µM): 0.183
- relative viability (HCC-827; first compound 4 µM): 0.194
- relative viability (NCI-H1437; first compound 0.04 µM): 1.07
- relative viability (NCI-H1437; first compound 0.1265 µM): 1.08
- relative viability (NCI-H1437; first compound 0.4 µM): 1.18
- relative viability (NCI-H1437; first compound 1.265 µM): 1.06
- relative viability (NCI-H1437; first compound 4 µM): 0.997
- relative viability (LCLC-103H; first compound 0.04 µM): 0.797
- relative viability (LCLC-103H; first compound 0.1265 µM): 0.714
- relative viability (LCLC-103H; first compound 0.4 µM): 0.803
- relative viability (LCLC-103H; first compound 1.265 µM): 0.806
- relative viability (LCLC-103H; first compound 4 µM): 0.725
- relative viability (A-427; first compound 0.04 µM): 0.797
- relative viability (A-427; first compound 0.1265 µM): 0.736
- relative viability (A-427; first compound 0.4 µM): 0.761
- relative viability (A-427; first compound 4 µM): 0.64
- relative viability (NCI-H1792; first compound 0.04 µM): 0.723
- relative viability (NCI-H1792; first compound 0.1265 µM): 0.663
- relative viability (NCI-H1792; first compound 0.4 µM): 0.728
- relative viability (NCI-H1792; first compound 1.265 µM): 0.503
- relative viability (NCI-H1792; first compound 4 µM): 0.581
- relative viability (NCI-H1395; first compound 0.04 µM): 0.381
- relative viability (NCI-H1395; first compound 0.1265 µM): 0.381
- relative viability (NCI-H1395; first compound 0.4 µM): 0.389
- relative viability (NCI-H1395; first compound 4 µM): 0.394
- relative viability (NCI-H1355; first compound 0.04 µM): 0.792
- relative viability (NCI-H1355; first compound 0.1265 µM): 0.745
- relative viability (NCI-H1355; first compound 0.4 µM): 0.767
- relative viability (NCI-H1355; first compound 1.265 µM): 0.578
- relative viability (NCI-H1355; first compound 4 µM): 0.597
- relative viability (NCI-H460; first compound 0.04 µM): 0.589
- relative viability (NCI-H460; first compound 0.1265 µM): 0.646
- relative viability (NCI-H460; first compound 1.265 µM): 0.477
- relative viability (NCI-H460; first compound 4 µM): 0.596
- relative viability (HARA; first compound 0.04 µM): 0.41
- relative viability (HARA; first compound 0.1265 µM): 0.473
- relative viability (HARA; first compound 0.4 µM): 0.173
- relative viability (HARA; first compound 1.265 µM): 0.246
- relative viability (HARA; first compound 4 µM): 0.34
- relative viability (NCI-H727; first compound 0.1265 µM): 0.49
- relative viability (NCI-H727; first compound 0.4 µM): 0.774
- relative viability (NCI-H727; first compound 1.265 µM): 0.654
- relative viability (NCI-H727; first compound 4 µM): 0.538
- relative viability (NCI-H1755; first compound 0.04 µM): 0.451
- relative viability (NCI-H1755; first compound 0.1265 µM): 0.406
- relative viability (NCI-H1755; first compound 0.4 µM): 0.489
- relative viability (NCI-H1755; first compound 1.265 µM): 0.418
- relative viability (NCI-H1755; first compound 4 µM): 0.419
- relative viability (EMC-BAC-2; first compound 0.04 µM): 1.05
- relative viability (EMC-BAC-2; first compound 0.1265 µM): 0.991
- relative viability (EMC-BAC-2; first compound 0.4 µM): 1.12
- relative viability (EMC-BAC-2; first compound 4 µM): 1.15
- relative viability (NCI-H522; first compound 0.04 µM): 0.848
- relative viability (NCI-H522; first compound 0.1265 µM): 0.794
- relative viability (NCI-H522; first compound 0.4 µM): 0.777
- relative viability (NCI-H522; first compound 1.265 µM): 0.74
- relative viability (NCI-H522; first compound 4 µM): 0.808
- relative viability (NCI-H23; first compound 0.04 µM): 0.269
- relative viability (NCI-H23; first compound 0.1265 µM): 0.229
- relative viability (NCI-H23; first compound 0.4 µM): 0.228
- relative viability (NCI-H23; first compound 1.265 µM): 0.259
- relative viability (NCI-H23; first compound 4 µM): 0.266
- relative viability (NCI-H1915; first compound 0.04 µM): 0.717
- relative viability (NCI-H1915; first compound 0.1265 µM): 0.665
- relative viability (NCI-H1915; first compound 0.4 µM): 0.716
- relative viability (NCI-H1915; first compound 1.265 µM): 0.653
- relative viability (NCI-H1915; first compound 4 µM): 0.661
- relative viability (HCC-366; first compound 0.04 µM): 0.325
- relative viability (HCC-366; first compound 0.1265 µM): 0.253
- relative viability (HCC-366; first compound 0.4 µM): 0.32
- relative viability (HCC-366; first compound 1.265 µM): 0.194
- relative viability (HCC-366; first compound 4 µM): 0.226
- relative viability (NCI-H1975; first compound 0.04 µM): 0.731
- relative viability (NCI-H1975; first compound 0.1265 µM): 0.66
- relative viability (NCI-H1975; first compound 0.4 µM): 0.59
- relative viability (NCI-H1975; first compound 1.265 µM): 0.492
- relative viability (NCI-H1975; first compound 4 µM): 0.568
- relative viability (CAL-12T; first compound 0.04 µM): 0.683
- relative viability (CAL-12T; first compound 0.1265 µM): 0.599
- relative viability (CAL-12T; first compound 0.4 µM): 0.588
- relative viability (CAL-12T; first compound 1.265 µM): 0.469
- relative viability (CAL-12T; first compound 4 µM): 0.574
